Laboratory results reported in ChEMBL document CHEMBL3430912, “GSK Tres Cantos Anti-Kinetoplastid Screening (TCAKS) Data”.

Columns and labels:
[1] = GSK_TCAKS: pIC50 HepG2 human cell line viability assay using luminiscence. […] Seeding density was checked to ensure that new mono-layers were not more than 50% confluent at the time of harvesting. Cell suspension was added to 500 mL of the same medium at a final density of 1.2 * 10^5 cells/mL. This cell suspension was dispensed (25 uL, 3000 cells per well) into 384-well clear-bottom plates using a Multidrop Combi dispenser. Prior to addition of the cell suspension, the screening compounds (250 nL) were pre-dispensed into the plates with an Echo liquid handler. Plates were incubated for 48 h at 37C, 5% CO2. After incubation, plates equilibrated at room temperature for 30 min before proceeding to develop the luminescent signal. The signal developer, CellTiter-Glo Reagent, was allowed to equilibrate at room temperature for 30 min and added to the plates (25uL per well) using a Multidrop Combi dispenser. Plates were left for 10 min at room temperature for stabilization and then read using a ViewLux.; type: toxicity, cell-based
[2] = molecular target: Sterol 14-alpha demethylase (Trypanosoma cruzi (strain CL Brener), UniProt Q7Z1V1); experiment: GSK_TCAKS: pIC50 CYP51 from Trypanosoma cruzi.; type: functional
Chain of Sterol 14-alpha demethylase (Q7Z1V1 whole entry): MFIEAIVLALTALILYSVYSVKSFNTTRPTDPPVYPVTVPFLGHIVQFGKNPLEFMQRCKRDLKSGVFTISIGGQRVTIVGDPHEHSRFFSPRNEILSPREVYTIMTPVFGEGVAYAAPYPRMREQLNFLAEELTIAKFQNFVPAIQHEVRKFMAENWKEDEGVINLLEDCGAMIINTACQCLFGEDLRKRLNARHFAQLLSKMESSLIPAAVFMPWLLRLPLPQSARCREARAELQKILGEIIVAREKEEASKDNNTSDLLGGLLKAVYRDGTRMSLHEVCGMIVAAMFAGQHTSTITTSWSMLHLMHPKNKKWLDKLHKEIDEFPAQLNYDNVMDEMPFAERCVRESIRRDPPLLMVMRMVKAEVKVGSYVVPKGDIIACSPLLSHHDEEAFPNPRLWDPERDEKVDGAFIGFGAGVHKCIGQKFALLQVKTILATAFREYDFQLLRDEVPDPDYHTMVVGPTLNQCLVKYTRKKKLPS

Leishmania donovani [3] = experiment: GSK_TCAKS: pIC50 Leishmania donovani Imaging: Infected Macrophages. Assay plates (384-well) were prepared by adding 250nL of compound to each well. For single shot assay, the final compound concentration was 5 uM. […] Automated image analysis was performed with a script developed on Acapella High Content Imaging and Analysis Software (PerkinElmer). Output: Percent of infected macrophage cells were reported for each well.; type: functional, organism-based, Homo sapiens; settings: THP-1
NIH3T3 = experiment: GSK_TCAKS: pIC50 NIH 3T3 cell line viability assay using luminiscence. Tissue culture surface treated assay plates (1536-well) were used. […] The 100% cells survival control was determined exposing the host-cells to a 0.5% DMSO concentration, whereas the 100% toxicity control was achieved by seeding the cells in presence of Amphotericin B at 50uM. Plates were incubated for four days at 37C, 5% CO2. The assay readout was developed by addition of 5uL of CellTiter-Glo Reagent following the manufacturer's instructions. Luminiscence was measured using a ViewLux.; type: functional, cell-based; settings: Mus musculus, NIH3T3, 96 h
Leishmania donovani [4] = experiment: GSK_TCAKS: pIC50 Leishmania donovani viability assay using fluorescence intensity. Assay plates (1536-well) were prepared by adding 30nL per well of compound. For single shot assay, the final compound concentration was 5uM. […] Briefly, eGFP LdBOB axenic amastigotes were harvested, fixed and counted in a CASY cell counter (Roche-Applied Science). A final concentration of 1.5 * 10^5 cells per well were prepared in amastigote media containing 500 U/mL penicillin/streptomycin (Invitrogen) and 6uL was dispensed to each experimental well using a Multidrop Combi dispenser (Thermo Scientific). 6uL of assay media was dispensed to control columns used as reference for 100% compound response. Following incubation for 72 h at 37C, 5% CO2, 2 uL of resazurin was added to each well at a final concentration of 0.5 mM in phosphate buffered saline (PBS) with IGEPAL (Sigma-Aldrich), 0.05% (v/v).; type: functional, organism-based
Leishmania donovani [5] = experiment: GSK_TCAKS: pIC50 Leishmania donovani Imaging: Amastigotes/Macrophages. Assay plates (384-well) were prepared by adding 250nL of compound to each well. For single shot assay, the final compound concentration was 5 uM. […] Automated image analysis was performed with a script developed on Acapella High Content Imaging and Analysis Software (PerkinElmer). Output: Average number of amastigotes per macrophage cell were reported for each well.; type: functional, organism-based, Homo sapiens; settings: THP-1
Trypanosoma cruzi [6] = experiment: (§1) GSK_TCAKS: pIC50 H2C9 Imaging: H9c2 Host Cardiomyocytes. […] Cells were then washed once with PBS before infection. T. cruzi trypomastigotes, collected at days 5 to 8 after infection from LLC-MK2 parasite infected cultures, were allowed to swim out for 4h at 37C from a centrifuged pellet (2,500 rpm/10 min/room temperature). Trypomastigotes were then collected and counted in a CASY Cell Counter. Trypomastigotes, in supplemented DMEM, were added to H9c2 cultures in a multiplicity of infection of 1 and incubated for 18 h. Cells were washed once with PBS before incubation of the infected H9c2 monolayer with trypsin (Life-Technologies) to detach cells from the flask. Cells were counted in a CASY Cell Counter using a 150 um capillary and their density set at 5 * 10^4 cells per mL in supplemented assay DMEM. Infected H9c2 were dispensed into 384-well poly-lysine coated assay plates at 50uL per well using a Multidrop Combi dispenser. After seeding them, the plates were incubated at 37C, 5% CO2 for 72h. Cultures were then fixed and stained by addition of 50 uL of a solution containing 8% formaldehyde and 4 uM DRAQ5 DNA dye (BioStatus, UK) per well. […] Five images were collected per well for reliable statistical analysis. Automated image analysis was performed with a script developed on Acapella High Content Imaging and Analysis Software (PerkinElmer). Output: Number of H9c2 Host Cardiomyocytes nuclei to determine drug-related cytotoxicity.; type: functional, organism-based, Rattus norvegicus; settings: H9c2, 4 h
Leishmania donovani [7] = experiment: GSK_TCAKS: pIC50 Leishmania donovani Imaging: THP-1 Host Macrophages. Assay plates (384-well) were prepared by adding 250nL of compound to each well. For single shot assay, the final compound concentration was 5 uM. […] Automated image analysis was performed with a script developed on Acapella High Content Imaging and Analysis Software (PerkinElmer). Output: THP-1 cell count were reported for each well.; type: functional, organism-based, Homo sapiens
[8] = system: Trypanosoma brucei brucei; experiment: GSK_TCAKS: pIC50 Trypanosoma brucei viability assay using fluorescence intensity. Assay plates (1536-well) were prepared by dispensing 25nL of compound solution per well using an Echo acoustic dispenser (Labcyte).; type: functional, organism-based; settings: Lister 427, 2 h
Trypanosoma cruzi [9] = experiment: GSK_TCAKS: pIC50 Trypanosoma cruzi viability assay using beta-GAL activity. This assay was run at single shot at 5uM compound concentration per well. The biological reagents consisted of NIH-3T3 host cells and trypomastigotes parasitic cells; both cell types were set to a 3.3 * 10^5 cells/mL dilution in assay DMEM by means of a CASY cell counter device using a 60um capillary. 6 uL of the mixture were dispensed per well (about 1 * 10^3 host-cells and 1 * 10^3 parasites) with a Multidrop Combi dispenser. […] In all wells, the percentage of DMSO never exceeded 0.5%. Plates incubated for four days at 37C, 5% CO2. The substrate used for the assay fluorescence intensity (FLINT) readout was resorufin-beta-D-galactopiranoside (Sigma-Aldrich) at 5uM per well. It was diluted in PBS supplemented with the soft detergent Igepal (Fluka).; type: functional, organism-based, Mus musculus; settings: Tulahuen, NIH3T3
Trypanosoma cruzi [10] = experiment: as §1, with “Trypanosoma cruzi” for “H2C9”, “Amastigotes/Cell.” for “H9c2 Host Cardiomyocytes.”, “number” for “Number”, “amastigotes per cell as infection level measurement.” for “H9c2 Host Cardiomyocytes nuclei to determine drug-related cytotoxicity.”; type: functional, organism-based, Rattus norvegicus; settings: H9c2, 4 h
[11] = system: Trypanosoma brucei brucei; experiment: GSK_TCAKS: pIC50 Trypanosoma brucei viability assay using luminiscence. Assay plates (1536-well) were prepared. T. brucei cultures were harvested and counted in a CASY cell counter. A parasite suspension was prepared at a final concentration of 5 * 10^4 cells/mL in complete HMI9 medium and 6uL was dispensed to all wells containing compounds using a Multidrop Combi dispenser. 6uL of HMI9 media with 0.4% DMSO were dispensed to control columns. Plates were incubated for 24 h at 37C, 5% CO2 then tempered for 10 min at room temperature. ATP content was quantified by adding 4 uL of CellTiter-Glo Reagent (Promega) according to the manufacturer's instructions. Luminescence was measured using a ViewLux.; type: functional, organism-based; settings: Lister 427, CASY
Trypanosoma cruzi [12] = experiment: as §1, with “Trypanosoma cruzi” for “H2C9”, “Infected Cells.” for “H9c2 Host Cardiomyocytes.”, “percentage” for “Number”, “infected cells per well as a second infection marker.” for “H9c2 Host Cardiomyocytes nuclei to determine drug-related cytotoxicity.”; type: functional, organism-based, Rattus norvegicus; settings: H9c2, 4 h

Row | SMILES | IC50 at 48 h [1] [µM] | IC50 [2] [µM] | IC50 (Leishmania donovani [3]) [µM] | IC50 (NIH3T3) [µM] | IC50 (Leishmania donovani [4]) [µM] | IC50 (Leishmania donovani [5]) [µM] | IC50 (Trypanosoma cruzi [6]) [µM] | IC50 (Leishmania donovani [7]) [µM] | IC50 [8] [µM] | IC50 (Trypanosoma cruzi [9]) [µM] | IC50 (Trypanosoma cruzi [10]) [µM] | IC50 [11] [µM] | IC50 (Trypanosoma cruzi [12]) [µM]
1 | COc1ccc(NS(=O)(=O)c2cc(NC(=O)Cc3ccc(C)cc3)ccc2N2CCOCC2)cc1 | > 100 | > 100 | > 50.1 | 25.1 | 39.8 | > 50.1 | > 50.1 | > 50.1 | 5.01 | 2 | 2.51 | 7.94 | 5.01
2 | NC(=O)c1ccccc1Nc1nc(NC2CCCCC2)nc2[nH]ccc12 | 20 | > 100 | 12.6 | 25.1 | 20 | 12.6 | 25.1 | 10 | 0.501 | 1 | 1 | 10 | 1
3 | CCCCn1nnnc1CSc1nc(C)cc(C)c1C#N | > 100 | 50.1 | 3.98 | > 50.1 | 1.26 | 3.16 | > 50.1 | > 50.1 | > 39.8 | 0.316 | 0.1 | > 39.8 | 0.2
4 | O=C(CSc1ccc(F)cc1)N[C@@H](Cc1c[nH]cn1)C(=O)NCCc1ccccc1 | > 100 | 0.0794 | > 50.1 | 12.6 | > 50.1 | > 50.1 | > 50.1 | > 50.1 | > 39.8 | 0.447 | 0.501 | > 39.8 | 0.501
5 | CCOc1cnn(C)c(=O)c1Nc1ccc(C(=O)NCc2ccc(F)cc2)cc1 | > 100 | 3.98 | > 50.1 | > 50.1 | 31.6 | > 50.1 | > 50.1 | 31.6 | > 39.8 | 0.251 | 0.126 | > 39.8 | 0.1
6 | CN(Cc1nnnn1C1CCN(Cc2ccc(-n3ccnc3)cc2)CC1)c1ccc(F)cc1F | > 100 | 0.126 | > 50.1 | 25.1 | > 50.1 | 15.8 | > 50.1 | > 50.1 | > 39.8 | 0.316 | 0.316 | > 39.8 | 0.316
7 | CN(Cc1ccccc1)Cc1nnnn1C1CCN(Cc2ccc(-n3ccnc3)cc2)CC1 | > 100 | 0.0501 | > 50.1 | 3.98 | > 50.1 | > 50.1 | > 50.1 | 31.6 | > 39.8 | 0.398 | 0.251 | > 39.8 | 0.316
8 | O=C(NC1C(=O)N(c2ccccc2)C1c1cccnc1)c1ccc(Cl)s1 (stereo not given) | > 100 | 0.2 | > 50.1 | > 50.1 | 1 | 0.794 | > 50.1 | > 50.1 | > 39.8 | 0.0316 | 0.0398 | > 39.8 | 0.0501
9 | CCn1nccc1CN(C)C(=O)C=Cc1ccc(Cl)cc1 | > 100 | 0.316 | > 50.1 | > 50.1 | 15.8 | > 50.1 | > 50.1 | > 50.1 | 31.6 | 0.224 | 0.316 | > 39.8 | 0.316
10 | Cc1n[nH]c2c1C(c1ccc(OCc3ccccc3F)cc1)SCC(=O)N2 (stereo not given) | > 100 | > 100 | > 50.1 | > 50.1 | 39.8 | > 50.1 | > 50.1 | > 50.1 | 25.1 | 2 | 0.794 | > 39.8 | 3.16
